Experimental data taken from patent US8546579B2, “Bicycloheteroaryl compounds as P2X7 modulators and uses thereof” (Evotec (US) Inc., priority 2006, dated 2013).

Target: T1, P2X7 receptor (Homo sapiens, UniProt Q99572)
T1 construct: host or cells: THP-1 cells differentiated with LPS and IFN-γ
T1 sequence (Q99572 1-595): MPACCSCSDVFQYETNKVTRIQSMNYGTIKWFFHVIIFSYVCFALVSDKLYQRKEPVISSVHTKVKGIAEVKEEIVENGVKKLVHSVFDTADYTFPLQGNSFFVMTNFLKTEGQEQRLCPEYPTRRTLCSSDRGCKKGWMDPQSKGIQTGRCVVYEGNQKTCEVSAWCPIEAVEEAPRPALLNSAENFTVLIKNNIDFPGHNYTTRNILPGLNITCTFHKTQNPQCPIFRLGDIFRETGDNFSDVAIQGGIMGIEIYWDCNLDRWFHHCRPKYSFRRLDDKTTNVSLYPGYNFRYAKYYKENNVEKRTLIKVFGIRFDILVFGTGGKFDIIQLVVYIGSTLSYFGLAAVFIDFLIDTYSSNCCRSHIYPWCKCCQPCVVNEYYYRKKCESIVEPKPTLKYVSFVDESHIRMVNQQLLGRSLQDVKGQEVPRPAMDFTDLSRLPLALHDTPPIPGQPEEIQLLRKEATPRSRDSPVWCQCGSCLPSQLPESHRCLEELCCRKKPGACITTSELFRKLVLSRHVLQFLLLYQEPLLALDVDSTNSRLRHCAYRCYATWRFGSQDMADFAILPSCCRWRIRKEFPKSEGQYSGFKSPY
Test: IL-1β release assay in differentiated THP-1 cells stimulated with BzATP (Example 9)
Type: cell-based
Set-up: inhibition: dose or concentration left out as unconfirmed
Details: 0.1 μM compound; differentiated THP-1 cells, BzATP 250 uM; "*" class symbols; read-out: IL-1β % Inhib. ("*" symbols: at 0.1 μM)
Description: THP-1 cells (ATCC Cat # 285-IF-100) are plated in 96 well plates at a concentration of 200,000 cells per well and allowed to differentiate in RPMI-1640 media (ATCC Cat # 30-2001) containing 10% FBS, 100 IU/mL penicillin, 100 ug/mL streptomycin, 100 ng/mL LPS and 100 ng/mL IFN-γ for 16 hours. Following differentiation, the cells are treated for an additional 2 hours in RPMI-1640 media containing 100 IU/mL penicillin, 100 ug/mL streptomycin and fresh LPS at 100 ng/mL. The cells are then pretreated for 30 minutes with the compound of interest at the appropriate concentration in RPMI media containing 100 IU/mL penicillin, 100 ug/mL streptomycin. Following the pretreatment 2′,3′-O-(4-benzoylbenzoyl)-adenosine 5′-triphosphate (Sigma Aldrich Cat # B6396) is added to a final concentration of 250 uM and the cells are incubated for an additional 45 minutes. 30 uL of cell supernatant is then collected and IL-1β levels determined via ELISA (R&D systems Cat. # HSLB50) according to manufacturer's recommendations using the Tecan Safire plate reader. Background adjusted IL-1β levels of drug treated and non-treated cells are used to calculate the percent inhibition.
The compounds set forth in Table 1 were tested for activity in a cellular model as described herein. Specifically, cells were pretreated with differing amounts of the compound under test and released IL-1β determined as in Example 9, above. Measurements were made and IC50 values, presented in Table 2, below, were determined by fitting the data to a four parameter logistic equation using GraphPad Prism software (GraphPad Software, Inc). The equation may be expressed by the following formula: Y=Bottom+(Top−Bottom)/(1+10^((Log EC50−X)*HillSlope)) Where X is the logarithm of concentration, Y is the response and Y starts at Bottom and goes to Top with a sigmoid shape.

Row | inhibition at 0.1 µM [%] | SMILES
1 | 0 to 25 | COc1ccc(C(=O)Nc2cccc3c(=O)n(Cc4ccc(OC(F)(F)F)cc4)ccc23)cc1C [Compound 1608]

Same assay, conditions: 0.1 μM compound; differentiated THP-1 cells, BzATP 250 uM; '*' class symbols; read-out: IL-1β % Inhib. (asterisk classes, 0.1 μM)

Row | inhibition at 0.1 µM [%] | SMILES
2 | 0 to 25 | Cc1ccccc1CCC(=O)Nc1cccc2c(=O)n(CC(C)(C)C)ccc12 [Compound 1048]

Same assay, conditions: 0.1 μM compound; differentiated THP-1 cells, BzATP 250 uM; symbols * to ****; read-out: IL-1β % Inhib. (asterisk symbols: at 0.1 μM)

Row | inhibition at 0.1 µM [%] | SMILES
3 | 0 to 25 | CCOc1ccc(C(=O)Nc2cccc3c(=O)n(CCN4CCOCC4)ccc23)cc1 [Compound 1198]
4 | 0 to 25 | CC(C(=O)Nc1cccc2c(=O)n(CC(C)(C)C)ccc12)c1ccccc1 (stereo not drawn) [Compound 1247]
5 | 0 to 25 | COCCn1ccc2c(NC(=O)Cc3cc(OC)ccc3OC)cccc2c1=O [Compound 1313]

Same assay, conditions: 0.3 μM compound; differentiated THP-1 cells, BzATP 250 uM; "+" class symbols; read-out: IL-1β % Inhib. @ 0.3 μM

Row | inhibition at 0.3 µM [%] | SMILES
6 | 0 to 25 | CN(C)CCn1ccc2c(NC(=O)C3(c4ccc(Cl)cc4)CCCC3)cccc2c1=O [Compound 1614]
7 | 0 to 25 | CC(C(=O)Nc1cccc2c(=O)n(CCS(C)(=O)=O)ccc12)c1ccc(Cl)cc1 (stereo not drawn) [Compound 1631]
8 | ≥ 76 | CC(C)(C)OC(=O)N1CCC[C@@H]1Cn1ccc2c(NC(=O)Cc3ccc(Cl)c(C(F)(F)F)c3)cccc2c1=O [Compound 1620]

Same assay, conditions: 0.3 μM compound; differentiated THP-1 cells, BzATP 250 uM; '+' class symbols; read-out: IL-1β % Inhib. @ 0.3 μM

Row | inhibition at 0.3 µM [%] | SMILES
9 | 0 to 25 | Cc1cccc(C(=O)Nc2cccc3c(=O)n(CCN(C)C)ccc23)c1Cl [Compound 1183]
10 | 0 to 25 | Cc1cc(C(=O)Nc2cccc3c(=O)n(CC4CCOCC4)ccc23)ccc1F [Compound 1124]
11 | 0 to 25 | CN(C)CCn1ccc2c(NC(=O)c3cc4ccccc4o3)cccc2c1=O [Compound 1162]
12 | 0 to 25 | COc1ccc(C(=O)Nc2cccc3c(=O)n(CCN(C)C)ccc23)cc1C [Compound 1184]
13 | 0 to 25 | Cc1ccc(C(=O)Nc2cccc3c(=O)n(CC4CCOCC4)ccc23)c(C)c1 [Compound 1087]
14 | ≥ 76 | CC(=O)OCCn1ccc2c(NC(=O)Cc3ccc(Cl)c(Cl)c3)cccc2c1=O [Compound 1023]
15 | 0 to 25 | Cc1cc(C)cc(CC(=O)Nc2cccc3c(=O)n(CCN(C)C)ccc23)c1 [Compound 1173]
16 | 0 to 25 | O=C(CCc1ccc2c(c1)OCO2)Nc1cccc2c(=O)n(CCN3CCOCC3)ccc12 [Compound 1046]
17 | 0 to 25 | Cc1ccccc1C(=O)Nc1cccc2c(=O)n(CCN3CCOCC3)ccc12 [Compound 1191]
18 | 0 to 25 | COCCn1ccc2c(NC(=O)c3ccc(OC)cc3C)cccc2c1=O [Compound 1060]
19 | 0 to 25 | CC(C(=O)Nc1cccc2c(=O)n(CCN(C)C)ccc12)c1ccccc1 (stereo not drawn) [Compound 1148]
20 | 0 to 25 | Cc1cccc(C(=O)Nc2cccc3c(=O)n(CCN(C)C)ccc23)c1C [Compound 1140]
21 | 0 to 25 | CCOc1ccc(CC(=O)Nc2cccc3c(=O)n(CCN(C)C)ccc23)cc1 [Compound 1160]
22 | 0 to 25 | Cc1cc(C(=O)Nc2cccc3c(=O)n(CC(C)(C)C)ccc23)ccc1Cl [Compound 1056]
23 | 0 to 25 | CC(C)Cc1ccc(C(=O)Nc2cccc3c(=O)n(CCN(C)C)ccc23)cc1 [Compound 1187]
24 | 0 to 25 | CN(C)CCn1ccc2c(NC(=O)CCc3ccc4c(c3)OCO4)cccc2c1=O [Compound 1038]

Same assay, conditions: 0.3 μM compound; differentiated THP-1 cells, BzATP 250 uM; symbols + to ++++; read-out: IL-1β % Inhib. @ 0.3 μM

Row | inhibition at 0.3 µM [%] | SMILES
25 | 0 to 25 | COCCn1ccc2c(NC(=O)CCc3ccc(Cl)cc3)cccc2c1=O [Compound 1335]
26 | 0 to 25 | Cc1ccccc1CC(=O)Nc1cccc2c(=O)n(CCN3CCOCC3)ccc12 [Compound 1208]
27 | 26 to 50 | Cc1cccc(CCC(=O)Nc2cccc3c(=O)n(CCN4CCOCC4)ccc23)c1 [Compound 1237]
28 | 0 to 25 | Cc1ccccc1CC(=O)Nc1cccc2c(=O)n(CC(C)(C)C)ccc12 [Compound 1256]
29 | 0 to 25 | CC(C(=O)Nc1cccc2c(=O)n(C)ccc12)c1ccccc1 (stereo not drawn) [Compound 1292]
30 | 0 to 25 | Cc1cc(Cl)ccc1C(=O)Nc1cccc2c(=O)n(CCN3CCOCC3)ccc12 [Compound 1221]
31 | 0 to 25 | Cc1cccc(CC(=O)Nc2cccc3c(=O)n(CCN4CCOCC4)ccc23)c1 [Compound 1211]
32 | 0 to 25 | COc1ccc(CC(=O)Nc2cccc3c(=O)n(CCN4CCOCC4)ccc23)c(OC)c1 [Compound 1230]
33 | 0 to 25 | Cc1cccc(CCC(=O)Nc2cccc3c(=O)n(Cc4cccnc4)ccc23)c1 [Compound 1369]
34 | 0 to 25 | Cn1ccc2c(NC(=O)c3cc4ccccc4o3)cccc2c1=O [Compound 1300]
35 | 0 to 25 | Cc1cccc(C(=O)Nc2cccc3c(=O)n(Cc4cccnc4)ccc23)c1Cl [Compound 1370]
36 | 0 to 25 | CCOc1ccc(C(=O)Nc2cccc3c(=O)n(C)ccc23)cc1 [Compound 1291]
37 | 0 to 25 | COc1c(C)cc(C(=O)Nc2cccc3c(=O)n(CC(C)(C)C)ccc23)cc1C [Compound 1267]
38 | 26 to 50 | COc1cccc(CC(=O)Nc2cccc3c(=O)n(C)ccc23)c1 [Compound 1297]
39 | 26 to 50 | COc1ccc(C(=O)Nc2cccc3c(=O)n(CCN4CCOCC4)ccc23)cc1C [Compound 1240]
40 | 0 to 25 | CCOc1ccc(CC(=O)Nc2cccc3c(=O)n(CCN4CCOCC4)ccc23)cc1 [Compound 1213]
41 | 0 to 25 | CC(C)(C)Cn1ccc2c(NC(=O)c3cc4ccccc4o3)cccc2c1=O [Compound 1264]

Same assay, conditions: THP-1; read-out: IL-1β % Inhib.

Row | inhibition [%] | SMILES
42 | 0 to 25 | O=C(Nc1cccc2c(=O)n(Cc3cccnc3)ccc12)c1ccc2ccccc2c1 [Compound 1448]
43 | 0 to 25 | CC(C(=O)Nc1cccc2c(=O)n(Cc3ccc(OC(F)(F)F)cc3)ccc12)c1ccccc1 (stereo not drawn) [Compound 1570]
44 | 0 to 25 | Cc1ccc(CCC(=O)Nc2cccc3c(=O)n(CC4CCN(C)CC4)ccc23)c(C)c1 [Compound 1491]
45 | 0 to 25 | COc1cc(CC(=O)Nc2cccc3c(=O)n(CCCN4CCCC4=O)ccc23)cc(OC)c1 [Compound 1528]
46 | 0 to 25 | CC(C)(C)Cn1ccc2c(NC(=O)c3ccc(C(C)(C)C)cc3)cccc2c1=O [Compound 1416]
47 | 0 to 25 | Cc1ccc(C)c(C(=O)Nc2cccc3c(=O)n(Cc4ccc(OC(F)(F)F)cc4)ccc23)c1 [Compound 1565]
48 | 0 to 25 | Cc1ccccc1CCC(=O)Nc1cccc2c(=O)n(Cc3ccc(OC(F)(F)F)cc3)ccc12 [Compound 1550]
49 | 0 to 25 | O=C(Cc1csc2ccccc12)Nc1cccc2c(=O)n(Cc3ccc(OC(F)(F)F)cc3)ccc12 [Compound 1597]
50 | 0 to 25 | Cc1ccc(CC(=O)Nc2cccc3c(=O)n(C)ccc23)cc1 [Compound 1423]
51 | 0 to 25 | COCCn1ccc2c(NC(=O)c3ccc(C)cc3C)cccc2c1=O [Compound 1426]
52 | 0 to 25 | CCOc1ccc(CC(=O)Nc2cccc3c(=O)n(Cc4cccnc4)ccc23)cc1 [Compound 1450]
53 | 0 to 25 | O=C(Nc1cccc2c(=O)n(Cc3ccc(OC(F)(F)F)cc3)ccc12)c1ccccc1Cl [Compound 1560]
54 | 0 to 25 | Cc1cccc(C(=O)Nc2cccc3c(=O)n(CC4CCN(C)CC4)ccc23)c1C [Compound 1461]
55 | 0 to 25 | COc1ccc(C(=O)Nc2cccc3c(=O)n(CC4CCN(C)CC4)ccc23)c(C)c1 [Compound 1456]
56 | 0 to 25 | COc1cccc(CC(=O)Nc2cccc3c(=O)n(Cc4ccc(OC(F)(F)F)cc4)ccc23)c1 [Compound 1580]

Same assay, conditions: THP-1 cells, BzATP-stimulated IL-1β release, four parameter logistic fit

Row | IC50 [nM] | SMILES
57 | > 1000 | CN(C)CCn1ccc2c(NC(=O)C3(c4ccc(Cl)cc4)CCCC3)cccc2c1=O [Compound 1614]
58 | > 1000 | CC(C(=O)Nc1cccc2c(=O)n(CCS(C)(=O)=O)ccc12)c1ccc(Cl)cc1 (stereo not drawn) [Compound 1631]
59 | 53.5 | CC(=O)OCCn1ccc2c(NC(=O)Cc3ccc(Cl)c(Cl)c3)cccc2c1=O [Compound 1023]
60 | 41.1 | CC(C)(C)OC(=O)N1CCC[C@@H]1Cn1ccc2c(NC(=O)Cc3ccc(Cl)c(C(F)(F)F)c3)cccc2c1=O [Compound 1620]
